Read-outs that look alike come from different tables or passages of the source.

A word on the Hill coefficient: it is the slope factor of the fitted curve.

Test [1] concerns the target T1, TmPPase (Thermotoga maritima, UniProt Q9S5X0).
T1 construct: His; made in house; host or cells: Saccharomyces cerevisiae strain BJ1991
The test can be described thus: TmPPase activity inhibition, molybdenum blue 96-well plate assay. The class given is biochemical. The following applies: for fold less active / weaker than ATC: IC50 relative to ATC; for IC50: purified TmPPase in DDM, 71°C, 2 min; for activity against TmPPase (in words): SAR discussion. An excerpt:
The screening process that led to the discovery of compound 1 (ATC) will be described in more detail elsewhere. Briefly, we tested compounds using a recently developed 96-well plate assay with TmPPase as a model system ([37]). The screening collections included compounds synthesized in our laboratories. The identification of ATC as an inhibitor was followed by the test of analogs 2 to 5. ATC and its analogs were initially developed for their antimicrobial, antiviral, and anticancer activities, as reported elsewhere ([38]).
(§1) TmPPase activity, compound screening, and kinetic experiments were done using the molybdenum blue reaction method in a purified protein solubilized in DDM ([37]). Initial reaction rates of TmPPase were determined using PPi as the substrate and ATC as the inhibitor at varying concentrations. The concentration of MgCl2 and Na4PPi required to maintain 5 mM free Mg^2+ at pH 8.0 was approximated as described previously ([41]). The reaction was done in reaction buffer [60 mM tris-HCl (pH 8.0), 5 mM free Mg^2+, 100 mM KCl, and 10 mM NaCl] at 71°C for 2 min. We chose a 2-min reaction time as it still produces a reaction product in a linear range (fig. S7).

Test [2] concerns PfPPase-VP1 (in membrane). The test can be described thus: Inhibition of PfPPase-VP1 in isolated membranes. In kind it is biochemical. The following applies: PfPPase IC50 versus TmPPase IC50. An excerpt:
(§2) Fig. S6. Effect of ATC on growth of P. falciparum and on PfPPase. (A) Inhibition effect of ATC on PfPPase-VP1 (in membrane) from P. falciparum expressed in insect cell baculovirus expression system (method and further analysis will be described in more detail elsewhere). ATC […]
(§3) (B) ATC has no anti-plasmodial […]
(§4) activity up to 100  µM. (C) Anti-plasmodial activity of artemisinin, as a positive control.
(§5) (1 picture or pasted object on this page, not shown here)

In test [3] the target is PfPPase-VP1 (in membrane) (Plasmodium falciparum, UniProt Q8IKR1). The test can be described thus: Inhibition of PfPPase-VP1 in isolated membranes. The class given is biochemical.
Description: as §2, §3, §4, §5

The target in test [4] is T1, TmPPase. The test can be described thus: Kinetic analysis of ATC inhibition of PPi hydrolysis by TmPPase. In kind it is biochemical. The following applies: PPi conc. 1721.
For test [5], the system named is Plasmodium falciparum strain 3D7. The test can be described thus: Anti-plasmodial activity assay (SYBR Green I, 72 h). In kind it is cell-based. As for the experimental part: Size-exclusion chromatography – Multi angle laser light scattering (SEC-MALLS) 50  µg of TmPPase purified in DDM with IDP (1 mM) and IDP+ATC (1 mM each) were run through a Superdex 200 10/300 GL equilibrated with a buffer containing 50 mM MES-NaOH pH 6.5, 50 mM KCl, 5 mM MgCl2, 2 mM DTT and 0.05% DDM using a HPLC-system (Shimadzu).
The eluted samples from the column were analysed using UV-absorbance, refractive index (Optilab rEX, Wyatt) and multi angle laser light scattering (miniDAWN TREOS, Wyatt) detectors and the enzyme molecular mass was calculated using ASTRA software (Wyatt).
Anti-plasmodial activity assay
For the in vitro anti-plasmodial activity assay, Plasmodium falciparum strain 3D7 was maintained in culture as described previously (56). Briefly, parasites were cultured in O+ human erythrocytes at 5% haematocrit in RPMI-1640 medium supplemented with 0.5% Albumax II (Gibco, Carlsbad, CA, USA), 200 μM hypoxanthine (Sigma, St. Louis, MO, USA) and 20 μg ml-1 gentamycin (Gibco). […]
Fifty microliters of each dilution were mixed in a 96-well plate with 150 µl of 2% haematocrit of 0.5% parasitemia (ring stage). After 72 h incubation at 37 °C, the parasite growth was quantified using fluorescent SYBR Green I®-based assay as described (58). The half-maximal inhibitory concentration (IC50) of the test compound was assessed by non-linear regression in Prism 7 (GraphPad Software). […]

Test [6] addresses T1, TmPPase. The test can be described thus: Kinetic analysis of ATC inhibition of PPi hydrolysis by TmPPase. In kind it is biochemical. As for the experimental part:
As ATC is a potent inhibitor, we further characterized its effect on the rate of substrate (PPi) hydrolysis using a range of ATC concentrations (0.0 to 12.0 μM). We performed the kinetic assay using PPi concentrations from 0 to 1714 μM at 71°C with a single-point measurement at 2 min (Fig. 4D), having shown that this is within the linear range for initial rates (fig. S7).
The model is a variant on that used by Artukka et al. ([23]) and is required as there is half-of-the-sites reactivity. The sum of squares when fitting the inhibition curves with an ATC monomer (i.e., n = 1 in Fig. 5) is 5268, and the SD of the residuals (Sy.x) is 4.3; when fitting an ATC dimer, the values are 855 and 1.8, respectively. […] This means that ATC binds as a dimer to TmPPase.
as §1
For analysis, we used a variant of Artukka and co-workers’ method ([23]), which assumes that the two active sites in an mPPase dimer interact allosterically, with the addition of inhibitor binding to the two active sites (Fig. 5). E2 represents the dimeric enzyme, S is the substrate (Na4PPi), I is the inhibitor (ATC), and n is the number of ATC molecules bound to the enzyme. KS is a microscopic Michaelis-Menten constant, and kp is the per-site maximum rate for the substrate complex. α is the factor relating the binding of the first substrate molecule (KS) to the binding of the second, β is the factor relating the rate of hydrolysis of the E2S complex (kp) to that of the E2S2 complex, and KI1obs, KI2obs, and KI3obs are the observed inhibition constants for binding to the E2, E2S, and E2S2 complexes.
For the mechanism in Fig. 5 with n = 2 (i.e., only inhibitor dimers bind), the rate Eq. 1 ([42]) is v=(2kp+2βkp[S]/αKs)/2(1+[I]^2/(KI2obs)^2)+(Ks/[S])(1+[I]^2/(KI1obs)^2)+([S]/αKs)(1+[I]^2/(KI3obs)^2) (1) where [S] and [I] correspond to substrate and inhibitor concentrations, respectively, and the equilibrium and Michaelis-type constants are as in Fig. 5. The kinetic data were fit together to obtain all parameter values and their SEs by nonlinear regression as a function of inhibitor (0, 1.0, 2.0, 4.0, 8.0, and 12.0 μM) and substrate (0 to 1714 μM) concentrations using Prism 6.0 (GraphPad Software). Eliminating the KI1 terms had no effect on the overall quality of fit.

Setting [7] is: PfPPase-VP1 expressed in insect cell baculovirus system.

T1 sequence (Q9S5X0 whole entry): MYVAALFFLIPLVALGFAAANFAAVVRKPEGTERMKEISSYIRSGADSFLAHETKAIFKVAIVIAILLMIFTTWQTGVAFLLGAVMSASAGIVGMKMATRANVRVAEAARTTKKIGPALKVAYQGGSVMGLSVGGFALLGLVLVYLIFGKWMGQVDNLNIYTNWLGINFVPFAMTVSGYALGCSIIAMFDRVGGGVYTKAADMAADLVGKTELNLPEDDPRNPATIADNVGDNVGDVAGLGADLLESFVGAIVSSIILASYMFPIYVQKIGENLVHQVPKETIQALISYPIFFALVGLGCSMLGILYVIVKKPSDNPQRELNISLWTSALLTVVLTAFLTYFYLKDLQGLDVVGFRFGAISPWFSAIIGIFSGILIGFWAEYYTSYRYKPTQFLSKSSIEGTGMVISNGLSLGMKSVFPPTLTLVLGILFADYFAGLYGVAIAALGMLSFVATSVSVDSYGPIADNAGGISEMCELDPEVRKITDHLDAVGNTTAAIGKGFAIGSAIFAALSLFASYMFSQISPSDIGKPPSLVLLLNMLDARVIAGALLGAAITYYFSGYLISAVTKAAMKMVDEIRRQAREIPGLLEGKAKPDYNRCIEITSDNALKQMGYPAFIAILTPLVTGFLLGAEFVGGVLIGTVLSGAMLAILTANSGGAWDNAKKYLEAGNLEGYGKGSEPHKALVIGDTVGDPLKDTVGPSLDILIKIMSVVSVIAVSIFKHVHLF
Chain of PfPPase-VP1 (in membrane) (Plasmodium falciparum, UniProt Q8IKR1) (Q8IKR1 entry or part of it): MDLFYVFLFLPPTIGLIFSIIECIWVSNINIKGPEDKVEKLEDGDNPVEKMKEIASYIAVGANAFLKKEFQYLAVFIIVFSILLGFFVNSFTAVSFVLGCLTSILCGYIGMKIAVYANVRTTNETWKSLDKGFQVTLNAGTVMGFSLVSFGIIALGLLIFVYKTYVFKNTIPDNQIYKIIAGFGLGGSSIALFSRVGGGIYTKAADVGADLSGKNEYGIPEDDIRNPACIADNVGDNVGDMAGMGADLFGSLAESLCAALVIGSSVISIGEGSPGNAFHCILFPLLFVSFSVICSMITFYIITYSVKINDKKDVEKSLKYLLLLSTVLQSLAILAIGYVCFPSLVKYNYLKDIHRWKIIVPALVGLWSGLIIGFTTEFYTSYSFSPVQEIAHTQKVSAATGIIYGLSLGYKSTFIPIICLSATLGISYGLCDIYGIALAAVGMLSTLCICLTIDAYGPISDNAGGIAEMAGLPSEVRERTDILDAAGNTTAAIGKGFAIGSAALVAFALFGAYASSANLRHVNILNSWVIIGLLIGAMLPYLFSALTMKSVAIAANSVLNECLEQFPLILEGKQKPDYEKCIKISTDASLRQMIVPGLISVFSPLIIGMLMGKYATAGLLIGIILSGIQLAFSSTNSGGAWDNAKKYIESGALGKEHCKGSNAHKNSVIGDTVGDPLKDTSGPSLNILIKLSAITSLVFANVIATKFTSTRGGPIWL

As to `Nc1nc2ccc(CNC(=O)c3ccc[nH]3)cc2s1` [compound 5], at TmPPase [1], the “fold less active / weaker than ATC” value is on record as “approximately 10 fold”.

For the compound `Nc1nc2ccc(CNC(=O)c3cc4cccc(Br)c4[nH]3)cc2s1` [compound 6], at TmPPase [1], the IC50 amounted to 21.4 µM.

As to `Nc1nc2ccc(CNC(=O)c3ccccc3)cc2s1` [compound 2], on TmPPase [1], the “activity against TmPPase (in words)” value was “inactive” and the IC50 was above 500 µM.

Consider `Nc1nc2ccc(CNC(=O)c3cccs3)cc2s1` [compound 3], for which, on TmPPase [1], the “activity against TmPPase (in words)” value was “inactive” and the IC50 is above 500 µM.

Regarding `Nc1nc2ccc(CNC(=O)c3ccco3)cc2s1` [compound 4], at TmPPase [1], the “fold less active / weaker than ATC” value is “approximately 10 fold”.

Regarding `Nc1nc2ccc(CNC(=O)c3cc4ccccc4[nH]3)cc2s1` [ATC, N-[(2-amino-6-benzothiazolyl)methyl]-1H-indole-2-carboxamide], the “fold lower than in T. maritima test system” value in test [2] is on record as “at least 40 fold”. Further, the IC50 was 83.6 µM in test [3] (setting [7]); around 80 µM in test [3] (isolated P. falciparum membranes, preliminary studies); 1.7 µM at TmPPase [1]; above 100 µM in test [5] (Plasmodium falciparum, P. falciparum 3D7, 72 h, read-out: anti-plasmodial activity, highest concentration without activity). Besides, in test [3] (setting [7]), the logIC50 turned out to be 1.9. Moreover, the Hill constant at TmPPase [4] came to 2.0; at TmPPase [6] (PPi conc. 35), 2.8; at TmPPase [6] (PPi conc. 71) it was 2.8; on TmPPase [6] (PPi conc. 142) it was 1.9; on TmPPase [6] (PPi conc. 1071) it was 2.2; on TmPPase [6] (PPi conc. 1428), 1.9. The same compound gave a Hill constant at TmPPase [6] (PPi conc. not printed (line between 142 and 1071)) of 2.2. Also, the “anti-plasmodial activity (in words)” value in test [5] (P. falciparum survival assays) was “did not show any anti-plasmodial activity”. At TmPPase [6], the mode of inhibition entry was “uncompetitive dimeric inhibitor”. The “fold weaker binding to E2S2 than to E2S” value on TmPPase [6] (KI3obs versus KI2obs) is “about 2.5 fold”. In addition, the Ki at TmPPase [6] (binding to E2 (no substrate), data not shown, read-out: KI1 (mean value when included in the fit)) was at least 250 µM; on TmPPase [6] (observed inhibition constant for binding to the E2S2 complex, n = 2 (ATC dimer), read-out: KI3obs), 3.18 ± 0.15 µM; at TmPPase [6] (observed inhibition constant for binding to the E2S complex, n = 2 (ATC dimer), read-out: KI2obs), 1.37 ± 0.09 µM. In addition, the “binding to E2 (in words)” value at TmPPase [6] (enzyme without substrate) is “does not bind to E2 at concentrations we are able to achieve”. Moreover, at TmPPase [6] (substrate concentrations greater than 100 μM), the “Hill coefficient for ATC binding” value was 2. Moreover, the Hill coefficient at TmPPase [6] (very low substrate concentrations (below 100 μM)) turned out to be 3.

Regarding `Nc1nc2ccc(CNC(=O)c3nc4ccccc4[nH]3)cc2s1` [compound 9], at TmPPase [1], the “activity against TmPPase (in words)” value was “fully inactive” and the IC50 was above 500 µM.

Values taken from article PMC6530997, “Asymmetry in catalysis by Thermotoga maritima membrane-bound pyrophosphatase demonstrated by a nonphosphorus allosteric inhibitor” (Science Advances, 2019).
